Measurements taken from ChEMBL document CHEMBL1150977, “A quantitative analysis of kinase inhibitor selectivity” (Nat Biotechnol, 2008).

Tests used:
Aurora kinase B = Aurora kinase B (Homo sapiens, UniProt Q96GD4)
LIM domain kinase 1 = LIM domain kinase 1 (Homo sapiens, UniProt P53667)
[1] = biological target: Tyrosine-protein kinase Fgr (Homo sapiens, UniProt P09769)
[2] = biological target: Tyrosine-protein kinase ABL1 (Homo sapiens, UniProt P00519, T315I)
Activin receptor type-1 = biological target: T1, Activin receptor type-1 (Homo sapiens, UniProt Q04771)
T1 sequence (Q04771 whole entry): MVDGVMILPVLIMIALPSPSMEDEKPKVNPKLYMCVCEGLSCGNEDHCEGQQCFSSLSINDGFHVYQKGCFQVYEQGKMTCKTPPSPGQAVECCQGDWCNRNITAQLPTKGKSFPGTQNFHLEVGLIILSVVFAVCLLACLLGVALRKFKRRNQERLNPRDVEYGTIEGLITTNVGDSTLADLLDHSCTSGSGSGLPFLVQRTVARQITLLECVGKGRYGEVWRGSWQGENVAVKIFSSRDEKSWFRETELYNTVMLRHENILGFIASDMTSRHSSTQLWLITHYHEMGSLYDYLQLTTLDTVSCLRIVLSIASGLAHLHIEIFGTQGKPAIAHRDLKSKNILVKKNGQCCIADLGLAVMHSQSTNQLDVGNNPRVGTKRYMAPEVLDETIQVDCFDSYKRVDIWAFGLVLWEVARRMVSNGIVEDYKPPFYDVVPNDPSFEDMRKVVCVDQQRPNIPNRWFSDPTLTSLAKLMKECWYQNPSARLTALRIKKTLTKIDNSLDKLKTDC

[3] = biological target: Glycogen synthase kinase-3 beta (Homo sapiens, UniProt P49841)
[4] = biological target: T2, Non-receptor tyrosine-protein kinase TNK1 (Homo sapiens, UniProt Q13470)
T2 sequence (Q13470 whole entry): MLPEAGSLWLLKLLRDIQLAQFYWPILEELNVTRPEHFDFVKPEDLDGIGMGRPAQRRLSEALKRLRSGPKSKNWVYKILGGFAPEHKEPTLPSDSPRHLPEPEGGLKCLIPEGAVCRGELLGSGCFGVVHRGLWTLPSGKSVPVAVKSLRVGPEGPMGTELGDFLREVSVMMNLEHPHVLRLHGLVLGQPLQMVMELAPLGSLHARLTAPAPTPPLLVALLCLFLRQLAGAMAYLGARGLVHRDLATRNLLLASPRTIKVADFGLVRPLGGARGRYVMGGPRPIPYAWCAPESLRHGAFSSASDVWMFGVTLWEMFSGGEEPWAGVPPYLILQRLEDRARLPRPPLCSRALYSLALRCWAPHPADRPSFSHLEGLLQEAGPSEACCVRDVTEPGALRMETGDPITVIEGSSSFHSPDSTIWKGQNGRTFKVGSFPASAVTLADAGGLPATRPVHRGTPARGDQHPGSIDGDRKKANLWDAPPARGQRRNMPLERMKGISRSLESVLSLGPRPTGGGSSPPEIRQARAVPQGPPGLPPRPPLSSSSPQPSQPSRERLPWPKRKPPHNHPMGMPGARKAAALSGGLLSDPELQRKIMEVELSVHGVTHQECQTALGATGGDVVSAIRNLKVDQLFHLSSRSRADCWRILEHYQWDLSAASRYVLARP

[5] = biological target: T3, Ribosomal protein S6 kinase alpha-5 (Homo sapiens, UniProt O75582)
[6] = biological target: Ribosomal protein S6 kinase alpha-4 (Homo sapiens, UniProt O75676)
[7] = biological target: Serine/threonine-protein kinase 32C (Homo sapiens, UniProt Q86UX6)
[8] = biological target: Mitogen-activated protein kinase 1 (Homo sapiens, UniProt P28482)
[9] = biological target: Death-associated protein kinase 2 (Homo sapiens, UniProt Q9UIK4)
[10] = biological target: T4, Serine/threonine-protein kinase BRSK1 (Homo sapiens, UniProt Q8TDC3)
T4 sequence (Q8TDC3 whole entry): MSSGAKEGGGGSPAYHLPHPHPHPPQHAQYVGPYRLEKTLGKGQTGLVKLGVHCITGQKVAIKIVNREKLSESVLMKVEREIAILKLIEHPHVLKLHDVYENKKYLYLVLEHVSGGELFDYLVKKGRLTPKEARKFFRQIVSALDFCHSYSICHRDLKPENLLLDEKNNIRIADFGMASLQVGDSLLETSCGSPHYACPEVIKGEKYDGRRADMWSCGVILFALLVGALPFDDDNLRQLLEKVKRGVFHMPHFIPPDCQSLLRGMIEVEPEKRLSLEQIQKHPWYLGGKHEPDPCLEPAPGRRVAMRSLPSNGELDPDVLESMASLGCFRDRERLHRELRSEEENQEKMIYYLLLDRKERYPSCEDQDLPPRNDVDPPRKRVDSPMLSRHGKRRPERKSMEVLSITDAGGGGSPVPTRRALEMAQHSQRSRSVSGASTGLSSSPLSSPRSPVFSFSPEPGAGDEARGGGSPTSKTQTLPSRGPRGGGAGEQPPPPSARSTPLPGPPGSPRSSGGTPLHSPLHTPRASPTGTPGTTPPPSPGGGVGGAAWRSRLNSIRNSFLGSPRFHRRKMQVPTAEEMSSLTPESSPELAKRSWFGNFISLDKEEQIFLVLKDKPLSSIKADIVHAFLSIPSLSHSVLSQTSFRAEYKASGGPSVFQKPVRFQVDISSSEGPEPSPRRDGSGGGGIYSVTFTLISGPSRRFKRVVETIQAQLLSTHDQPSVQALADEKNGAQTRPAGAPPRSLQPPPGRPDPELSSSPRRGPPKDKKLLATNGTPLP

[11] = biological target: T3, Ribosomal protein S6 kinase alpha-5; remark: listed apart in the source
[12] = biological target: Hepatocyte growth factor receptor (Homo sapiens, UniProt P08581)
[13] = biological target: Ribosomal protein S6 kinase alpha-6 (Homo sapiens, UniProt Q9UK32)

Structure (SMILES) | Kd (Aurora kinase B) [µM] | Kd (LIM domain kinase 1) [µM] | Kd [1] [µM] | Kd [2] [µM] | Kd (Activin receptor type-1) [µM] | Kd [3] [µM] | Kd [4] [µM] | Kd [5] [µM] | Kd [6] [µM] | Kd [7] [µM] | Kd [8] [µM] | Kd [9] [µM] | Kd [10] [µM] | Kd [11] [µM] | Kd [12] [µM] | Kd [13] [µM]
CCN1CCN(Cc2ccc(NC(=O)Nc3ccc(Oc4cc(NC)ncn4)cc3)cc2C(F)(F)F)CC1 [AST-487] | > 10 | > 10 | – | – | – | – | – | – | – | – | – | – | – | – | – | –
COCC(=O)NC/C=C/c1ccc2ncnc(Nc3ccc(Oc4ccc(C)nc4)c(C)c3)c2c1 [CP-724714] | > 10 | > 10 | > 10 | > 10 | > 10 | > 10 | > 10 | > 10 | > 10 | > 10 | > 10 | > 10 | > 10 | > 10 | > 10 | > 10
Nc1nc(Nc2ccc(S(N)(=O)=O)cc2)nn1C(=O)c1c(F)cccc1F [JNJ-7706621] | – | – | – | – | – | – | – | > 10 | 3 | > 10 | – | > 10 | – | > 10 | – | –
CCOc1cc2ncc(C#N)c(Nc3ccc(F)c(Cl)c3)c2cc1NC(=O)/C=C/CN(C)C [PELITINIB] | > 10 | > 10 | 0.95 | – | > 10 | > 10 | > 10 | > 10 | > 10 | > 10 | > 10 | > 10 | > 10 | > 10 | 6.2 | > 10
Oc1ccc(-c2nc(-c3ccncc3)c(-c3ccc(F)cc3)[nH]2)cc1 [SB-202190] | > 10 | > 10 | > 10 | > 10 | > 10 | 2.7 | > 10 | > 10 | > 10 | > 10 | > 10 | > 10 | > 10 | > 10 | > 10 | > 10
NC(=O)c1ccc(-c2nc(-c3ccc4c(c3)OCO4)c(-c3ccccn3)[nH]2)cc1 [SB-431542] | > 10 | > 10 | > 10 | > 10 | > 10 | > 10 | > 10 | > 10 | > 10 | > 10 | > 10 | > 10 | > 10 | > 10 | > 10 | –
